From ChEMBL document CHEMBL4177528, “Recent developments in drug discovery against the protozoal parasites Cryptosporidium and Toxoplasma” (Bioorg Med Chem Lett, 2017)

Experiments:
Cryptosporidium parvum = assay: Antiparasitic activity against Cryptosporidium parvum infected in human HCT8 cells incubated for 24 hrs post 3 hrs infection by Hoechst 33258 staining based epifluorescence microscopy; format: functional
Toxoplasma gondii [1] = assay: Antiparasitic activity against Toxoplasma gondii after 4 days by chlorophenol red-beta-D-galactosidase based assay; format: functional, organism-based; conditions: 96 h
Toxoplasma gondii [2] = assay: Antiparasitic activity against tachyzoite stage of Toxoplasma gondii RH infected in Swiss Webster mouse assessed as mouse survival for 60 days post infection; format: functional
Toxoplasma gondii [3] = assay: Antiparasitic activity against tachyzoite stage of Toxoplasma gondii infected in LLC-MK2 cells after 6 hrs; format: functional
Toxoplasma gondii [4] = assay: Antiparasitic activity against Toxoplasma gondii assessed as population with apicoplast loss after 4 days by Hoechst staining based microscopy; format: functional

| SMILES | IC50 (Toxoplasma gondii [1]) | Survival (Toxoplasma gondii [2]) | further results |
| --- | --- | --- | --- |
| COc1cccc(C(=O)NC(c2ccc(C)cc2)c2cc(Cl)c3cccnc3c2O)c1 (centres undefined) | – | – | Activity (Cryptosporidium parvum): 0.054 µM |
| Cc1cccc(-n2ncc3c(O)nc(-n4nc(C)cc4NC(=O)c4cc5ccccc5o4)nc32)c1 | – | – | Activity (Cryptosporidium parvum): 0.12 µM |
| Clc1ccc2ccccc2n1 | 5 to 6 µM | – | – |
| O=C(O)c1cn(C2CC2)c2cc(N3CCN(CC45CC6CC(CC(C6)C4)C5)CC3)c(F)cc2c1=O | – | 13 - 25% | – |
| Oc1cccc2cccnc12 [OXYQUINOLINE] | 0.213 µM | – | – |
| O=C1C2=C(C(=O)c3ccccc31)[C@H]1Oc3ccc(Br)cc3[C@H]1CO2 | – | – | Activity (Toxoplasma gondii [3]): <1 µM |
| CCOC(=O)c1cn(C2CC2)c2cc(N3CCN(Cc4ccccc4)CC3)c(F)cc2c1=O | – | 13 - 25% | – |
| O=C(O)c1cn(C2CC2)c2cc(N3CCNCC3)c(F)cc2c1=O [CIPROFLOXACIN] | – | 13 - 25% | – |
| CCOC(=O)c1cn(C2CC2)c2cc(N3CCNCC3)c(F)cc2c1=O [CIPROFLOXACIN ETHYL ESTER] | – | 13 - 25% | – |
| FC(F)(F)c1ccc2c(NCCCN3CCN(c4cccc5nc(Cl)ccc45)CC3)ccnc2c1 | 0.425 µM | – | Activity (Toxoplasma gondii [4]): 40 - 45% |
| c1ccc2ncccc2c1 [QUINOLINE] | 5 to 6 µM | – | – |
| O=[N+]([O-])c1cccc2ncccc12 | 5 to 6 µM | – | – |
| [O-][n+]1cccc2ccccc21 | 5 to 6 µM | – | – |
